Source: patent EP4548971A1, “1,4-BENZOTHIAZEPINES AND RELATED COMPOUNDS WITH CYCLOPROPANOL GROUPS AS MULTI-TARGETED DRUGS” (Georg-August-Universität Göttingen Stiftung Öffentlichen …, priority 2023, dated 2025)
pEC50, pIC50: −log10 of the molar value.

How the values were obtained:
[1] = tested on: saponin-permeabilized ventricular cardiomyocytes (sp-vCM) from RyR2R2474S/+ mice; experiment: Ca2+ wave decay in saponin-permeabilized ventricular cardiomyocytes, RyR2R2474S/+ mice; assay type: cell-based; conditions: 10 µM, result in words
From the text: (§1) • Figure 1: Synthesis scheme showing the synthesis of multifunctional compounds with cyclopropanol residues based on 1,4 -benzothiazepines. The respective reaction conditions (a) to (i) are as follows: (a) Jones reagent, aceton; (b) H2SO4, EtOH; (c) EtMgBr, Ti(OiPr)4, EtzO; (d) t-BuMe2SiOSO2CF3, 2,6-lutidine, DCM; (e) Hz, Pd/C, THF; (f) Dess-Martin reagent, DCM; (g) K2CO3, 1,4-dioxane; (h) N2H4*H2O, EtOH; (i) Na(CH3COO)3BH, 1,2-dichloroethane; (j) NaH, DMF; (k) aq. HF (55%), MeCN or 1 M n-Bu4NF in THF or KF, Et3N*HCl, MeOH. m,n = 2-8. • Figure 2: Synthesis scheme showing the synthesis of multifunctional compounds with cyclopropanol residues based on the "open" analogs 1,4 -benzothiazepines (i.e. 3-[(4-methoxyphenyl)oxy]-and 3-[(4-methoxyphenylthio)]propane-1-amine derivatives). […] Values represent the mean ± S.D., *** P < 0.0005, **** P < 0.0001 vs. DMSO by unpaired t test; n = 6 - 28. • Figure 6: Time-lapse fluorescence measurements using TECAN Spark 20M plate reader with HEK293 cells expressing WT RyR2 and R-CEPIA1er indicator. […] Fluorescence ratio F/F0, where F0 - average fluorescence signal for the first 90 seconds, F- average fluorescence signal for the last 100 s, was taken for the calculations. […] Data sets were analyzed by unpaired Student's t-test. n.s. non-significant with P=0.59 for Dan, **, P<0.01 with P=0.003 for S36, and *, P<0.05 with P=0.019 for GM1869; (D, E, F) Relative changes in the decay time tau of Ca2+ transients from spontaneous Ca2+ waves (in control/drug) by Dan (D, 10µM), S36 (E, 10 µM), and GM1869 (F, 10 µM) in cardiomyocytes from WT and RyR2R2474S/+ mice. […] Rise times represent the tau values calculated by a mono-exponential fit of the Ca2+ transients from start to the peak of the signal. Ca2+ transients were recorded in control conditions and every 2 min (S36) or 4 min (GM1869) after drug application. **, P = 0.0065 for S36; ****, P = 0.000019 for GM1869, evaluated by paired Student's t-test. […] Decay times represent the tau values calculated by a mono-exponential fit of the Ca2+ transients from half maximum to baseline of the signal. […]

[2] = tested on: RyR2-R2474S+/- iPSC cardiomyocytes; experiment: Electrically induced Ca2+ transients in intact iPSC-derived cardiomyocytes, RyR2-R2474S+/-; assay type: cell-based, human; conditions: estimated from non-linear fit; for pIC50: read-out: IC50 values for the rise times of Ca2+ transients
From the text: (§2) • Figure 1: Synthesis scheme showing the synthesis of multifunctional compounds with cyclopropanol residues based on 1,4 -benzothiazepines. The respective reaction conditions […] are as follows: (a) Jones reagent, aceton; (b) H2SO4, EtOH; (c) EtMgBr, Ti(OiPr)4, EtzO; (d) t-BuMe2SiOSO2CF3, 2,6-lutidine, DCM; (e) Hz, Pd/C, THF; (f) Dess-Martin reagent, DCM; (g) K2CO3, 1,4-dioxane; (h) N2H4*H2O, EtOH; (i) Na(CH3COO)3BH, 1,2-dichloroethane; (j) NaH, DMF; (k) aq. HF (55%), MeCN or 1 M n-Bu4NF in THF or KF, Et3N*HCl, MeOH. m,n = 2-8. • Figure 2: Synthesis scheme showing the synthesis of multifunctional compounds with cyclopropanol residues based on the "open" analogs 1,4 -benzothiazepines (i.e. 3-[(4-methoxyphenyl)oxy]-and 3-[(4-methoxyphenylthio)]propane-1-amine derivatives). […] Values represent the mean ± S.D., *** P < 0.0005, **** P < 0.0001 vs. DMSO by unpaired t test; n = 6 - 28. • Figure 6: Time-lapse fluorescence measurements using TECAN Spark 20M plate reader with HEK293 cells expressing WT RyR2 and R-CEPIA1er indicator. (a) R-CEPIA1er assay, control (0.1 v/v% DMSO) or 100 µM of compound 14a was injected at 90 seconds (arrow). Fluorescence ratio F/F0, where F0 - average fluorescence signal for the first 90 seconds, F- average fluorescence signal for the last 100 s, was taken for the calculations. (b-d) Dose-response effects of compounds 13 and 14 on [Ca^2+]ER in HEK293-RyR2-R-CEPIA1er cells. […] Data sets were analyzed by unpaired Student's t-test. n.s. non-significant with P=0.59 for Dan, **, P<0.01 with P=0.003 for S36, and *, P<0.05 with P=0.019 for GM1869; (D, E, F) Relative changes in the decay time tau of Ca2+ transients from spontaneous Ca2+ waves (in control/drug) by Dan (D, 10µM), S36 (E, 10 µM), and GM1869 (F, 10 µM) in cardiomyocytes from WT and RyR2R2474S/+ mice. […] Rise times represent the tau values calculated by a mono-exponential fit of the Ca2+ transients from start to the peak of the signal. Ca2+ transients were recorded in control conditions and every 2 min (S36) or 4 min (GM1869) after drug application. **, P = 0.0065 for S36; ****, P = 0.000019 for GM1869, evaluated by paired Student's t-test. […] Decay times represent the tau values calculated by a mono-exponential fit of the Ca2+ transients from half maximum to baseline of the signal. Ca2+ transients were recorded in control conditions and every 2 min (S36) or 4 min (GM1869) after drug application. Data sets were analyzed by paired Student's t-test. n.s., P = 0.14; **, P = 0.0043. […] Data from each experiment were normalized to the first transient recorded. […]

[3] = tested on: saponin-permeabilized ventricular cardiomyocytes (sp-vCM) from WT mice; experiment: Ca2+ wave decay in saponin-permeabilized ventricular cardiomyocytes, WT mice; assay type: cell-based; conditions: 10 µM, result in words
From the text: as §1

[4] = tested on: RyR2-WT iPSC cardiomyocytes; experiment: Electrically induced Ca2+ transients in intact iPSC-derived cardiomyocytes, RyR2-WT; assay type: cell-based, human; conditions: estimated from non-linear fit; for pIC50: read-out: IC50 values for the rise times of Ca2+ transients
From the text: as §2

[5] = Homo sapiens, iPSC, read-out: EC50 values for the decay times of Ca2+ transients

COc1ccc2c(c1)CN(CCCCN(CCCCC1(O)CC1)CCCCC1(O)CC1)CCS2 [Compound 14a, 1,1'-(((4-(7-Methoxy-2,3-dihydrobenzo[1,4-f]thiazepin-4(5H)-yl)butyl)azanediyl)bis(butane-4,1-diyl))bis(cyclopropan-1-ol)]
Relative changes in the decay time tau of Ca2+ transients from spontaneous Ca2+ waves (in control/drug) [1]: significantly below 1 | pEC50 [2, 5]: 10.15 | pIC50 ([2]; Homo sapiens, iPSC): 10.35 | Relative changes in the decay time tau of Ca2+ transients from spontaneous Ca2+ waves (in control/drug) [3]: significantly below 1 | pEC50 [4, 5]: 10.01 | pIC50 ([4]; Homo sapiens, iPSC): 10.60

COc1ccc2c(c1)CN(C(=O)C(=O)O)CCS2 [Compound S36, reference compound]
Relative changes in the decay time tau of Ca2+ transients from spontaneous Ca2+ waves (in control/drug) [1]: not significantly different from 1 | pIC50 ([2]; Homo sapiens, iPSC): 10.40 | EC50 values for the decay times of Ca2+ transients [2]: no EC50 values were obtained | Relative changes in the decay time tau of Ca2+ transients from spontaneous Ca2+ waves (in control/drug) [3]: not significantly different from 1 | pIC50 ([4]; Homo sapiens, iPSC): 9.82 | EC50 values for the decay times of Ca2+ transients [4]: no EC50 values were obtained
